molecular target: PHD2 (Homo sapiens, UniProt Q9GZT9); assay: PHD2 / HIF-1α peptide hydroxylation assay with time resolved fluorescence readout (PHD2 binding activity); assay type: biochemical; details: FLAG-tagged full length PHD2; 0.2 μM 2-oxoglutarate, 0.5 μM HIF-1α peptide; read-out: PHD2 Activity (PHD2 binding activity expressed as IC50)
Experimental: After a 30 min preincubation at room temperature, the enzymatic reactions were initiated by the addition of 4 μL of substrates (final concentrations of 0.2 μM 2-oxoglutarate and 0.5 μM HIF-1α peptide biotinyl-DLDLEMLAPYIPMDDDFQL). After 2 hr at room temperature, the reactions were terminated and signals were developed by the addition of a 25 μL quench/detection mix to a final concentration of 1 mM ortho-phenanthroline, 0.1 mM EDTA, 0.5 nM anti-(His)6 LANCE reagent (Perkin-Elmer Life Sciences), 100 nM AF647-labeled streptavidin (Invitrogen), and 2 μg/ml (His)6-VHL complex (S. Tan(2001) Protein Expr. Purif 21, 224-234). The ratio of time resolved fluorescence signals at 665 and 620 nm was determined, and percent inhibition was calculated relative to an uninhibited control sample run in parallel.

Sequence of PHD2 (Q9GZT9 whole entry): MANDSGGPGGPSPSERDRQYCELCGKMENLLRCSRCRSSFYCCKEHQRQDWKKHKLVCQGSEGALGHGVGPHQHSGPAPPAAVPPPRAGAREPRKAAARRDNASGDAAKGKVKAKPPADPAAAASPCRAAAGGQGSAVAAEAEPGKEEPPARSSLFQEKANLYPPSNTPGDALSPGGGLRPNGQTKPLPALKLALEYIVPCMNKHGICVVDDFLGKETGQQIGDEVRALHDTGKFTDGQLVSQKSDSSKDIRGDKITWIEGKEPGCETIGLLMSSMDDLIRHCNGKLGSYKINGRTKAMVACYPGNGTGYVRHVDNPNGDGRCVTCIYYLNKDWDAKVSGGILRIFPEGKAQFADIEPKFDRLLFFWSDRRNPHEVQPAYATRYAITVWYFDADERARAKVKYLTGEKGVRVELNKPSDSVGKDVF

IC50, < 10 nM:
O=C(O)CNC(=O)c1c(O)c2c(n(Cc3ccc(C(F)(F)F)cc3)c1=O)CN(C(=O)C1CCCC1)C2 [Example 20, N-({6-(cyclopentylcarbonyl)-4-hydroxy-2-oxo-1-[4-(trifluoromethyl)benzyl]-2,5,6,7-tetrahydro-1H-pyrrolo[3,4-b]pyridin-3-yl}carbonyl)glycine]
O=C(O)CNC(=O)c1c(O)c2c(n(Cc3ccc(C(F)(F)F)cc3)c1=O)CN(C(=O)c1ccc(Cl)cc1)C2 [Example 21, N-({6-(4-chlorobenzoyl)-4-hydroxy-2-oxo-1-[4-(trifluoromethyl)benzyl]-2,5,6,7-tetrahydro-1H-pyrrolo[3,4-b]pyridin-3-yl}carbonyl)glycine]
CC(=O)N1Cc2c(O)c(C(=O)NCC(=O)O)c(=O)n(Cc3ccc(C(F)(F)F)cc3)c2C1 [Example 9, N-({6-acetyl-4-hydroxy-2-oxo-1-[4-(trifluoromethyl)benzyl]-2,5,6,7-tetrahydro-1H-pyrrolo[3,4-b]pyridin-3-yl}carbonyl)glycine]
O=C(O)CNC(=O)c1c(O)c2c(n(Cc3cccc(-c4ccc(F)nc4)c3)c1=O)CN(C(=O)c1cscn1)C2 [Example 53, N-{[1-[3-(6-fluoropyridin-3-yl)benzyl]-4-hydroxy-2-oxo-6-(1,3-thiazo1-4-ylcarbonyl)-2,5,6,7-tetrahydro-1H-pyrrolo[3,4-b]pyridin-3-yl]carbonyl}glycine]
CS(=O)(=O)N1Cc2c(O)c(C(=O)NCC(=O)O)c(=O)n(Cc3ccc(C(F)(F)F)cc3)c2C1 [Example 10, N-({4-hydroxy-6-(methylsulfonyl)-2-oxo-1-[4-(trifluoromethyl)benzyl]-2,5,6,7-tetrahydro-1H-pyrrolo[3,4-b]pyridin-3-yl}carbonyl)glycine]
O=C(O)CNC(=O)c1c(O)c2c(n(Cc3ccc(C(F)(F)F)cc3)c1=O)CN(C(=O)c1csnn1)C2 [Example 35, N-({4-hydroxy-2-oxo-6-(1,2,3-thiadiazol-4-ylcarbonyl)-1-[4-(trifluoromethyl)benzyl}-2,5,6,7-tetrahydro-1H-pyrrolo[3,4-b]pyridin-3-yl}carbonyl)glycine]
O=C(O)CNC(=O)c1c(O)c2c(n(Cc3ccc(C(F)(F)F)cc3)c1=O)CN(C(=O)c1cncs1)C2 [Example 30, N-({4-hydroxy-2-oxo-6-(1,3-thiazol-5-ylcarbonyl)-1-[4-(trifluoromethyl)benzyl]-2,5,6,7-tetrahydro-1H-pyrrolo[3,4-b]pyridin-3-yl}carbonyl)glycine]
C=CCCC(=O)N1Cc2c(O)c(C(=O)NCC(=O)O)c(=O)n(Cc3ccc(-c4ccccc4)cc3)c2C1 [Example 2, N-{[1-(biphenyl-4-ylmethyl)-4-hydroxy-2-oxo-6-pent-4-enoyl-2,5,6,7-tetrahydro-1H-pyrrolo[3,4-b]pyridin-3-yl]carbonyl}glycine]

— patent publication US8372863B2, “Tetrahydro-1H-pyrrolo fused pyridones” (Merck Sharp & Dohme Corp., priority 2008, dated 2013)
